Entries after “also recorded” stand apart in the source; their conditions may differ. Read-outs that look alike come from different tables or passages of the source.
Tests used:
[1] = biological target: T1, MTH1 (Homo sapiens, UniProt P36639); test: Inhibition of the MTH1 hydrolysis of 8-oxo-dGTP (HPLC); assay type: biochemical; details: 50 μM 8-oxo-dGTP, 5 nM MTH1, pH 7.5, 37 °C, 10 min
Protocol: We examined whether the nucleoside diols, nucleoside monophosphate (NMP), and nucleoside triphosphate (NTP) derivatives inhibit the MTH1 hydrolysis of 8-oxo-dGTP. MTH1 and 8-oxo-dGTP were mixed with various concentrations of synthesized derivatives, and this mixture was incubated and analyzed by HPLC. In the case of diol compounds, 7,8-dichloro-7-deaza-dG (1), 7,8-dibromo-7-deaza-dG (2), and 7,8-diiodo-7-deaza-dG (3) exerted inhibitory effects on the hydrolytic activity of MHT1 at a micromolar level (Table 1, Entries 1–3). Their IC50 values were better than that of 8-iodo-7-deaza-dG (4) (Table 1, Entry 4).
Twenty microliters of MTH1 buffer (100 mM Tris-HCl, pH 7.5, 20 mM MgCl2, 200 mM NaCl, […] BSA, 40 mM DTT, and 50% glycerol), 10 μL (500 μM) of 8-oxo-dGTP, 55 μL of MilliQ, and 10 μL of various concentrations of substituted 7-deaza-dG derivatives were pre-incubated at 37 °C for 10 min (concentrations used: 7-deaza-dG, 7,8-dihalogenated-7-deaza-dG were 0, 0.5, 1, 2.5, 5, 10, 25, 50, 100, and 250 μM in 1% DMSO; 8-CF3-7-deazadGMP (3) was 0, 0.05, 0.1, 0.25, 0.5, 1, 2.5, 5, 10, and 25 μM; 7,8-dihalogenated-7-deaza-dGMP and –dGTP were 0, 0.0125, 0.025, 0.05, 0.1, 0.25, 0.5, 1, and 2.5 μM). Five microliters of MTH1 (0.1 pmol/μL in MTH1 buffer) was added, and the reaction mixture was incubated at 37 °C for 10 min. The resulting solutions were quenched with 100 μL of stop solution (5 mM EDTA). All samples were loaded on ice before the analysis with HPLC (HPLC conditions: A: 0.1 M TEAA, B: MeCN; Flow rate: 1.0 mL/min; Shiseido MG1 (4.6 × 250 mm); UV detector: 254 nm; 35 °C). The relative hydrolysis ratio values (ratio with inhibitor/ratio without inhibitor) were plotted at each inhibitor concentration. IC50 values were assessed using images.

[2] = biological target: T1, MTH1; test: Steady-state kinetics of MTH1 hydrolysis of 8-oxo-dGTP (Lineweaver-Burk plot); assay type: biochemical; details: 2 nM MTH1, 37 °C
Excerpt: We made a Lineweaver-Burk plot to calculate kinetic parameters (KM and kcat) in order to reveal the types of inhibition modes for MTH1. […] In the presence of new 7-deaza-dG monophosphate and triphosphate, kcat values were only slightly altered (Entries 2–7). On the other hand, all KM values increased (Entries 2–7).

[3] = biological target: T1, MTH1; test: Hydrolysis of triphosphate derivatives by MTH1 (HPLC time course); assay type: biochemical; details: 50 μM dNTP, 5 nM MTH1, 37 °C, various times
Protocol: Since the shapes of synthesized triphosphate derivatives were similar to 8-oxo-dGTP, we investigated whether these triphosphate derivatives are hydrolyzed by MTH1. MTH1 and these triphosphate derivatives were mixed and incubated at 37 °C for various times, and hydrolysis reactions were analyzed by HPLC. […] However, in the case of 7,8-dihalogenated triphosphate derivatives, the peak of the corresponding monophosphate was not detected in HPLC following the treatment with MTH1 (Figure 2. 9: purple, 10: red and 11: blue lines).
The reaction mixture was pre-incubated at 37 °C for 10 min before the addition of MTH1 to a final volume of 100 L (final concentration: 20 mM Tris-HCl, pH 7.5, 4 mM MgCl2, 40 mM NaCl, […] bovine serum albumin (BSA), 8 mM dithiothreitol (DTT), 10% glycerol; 0.5 pmol MTH1; 50 μM 7,8-dihalogenated-7-deaza-dGTP […], 8-CF3-7-deaza-dGTP (4), and 8-oxo-dGTP). The resulting solutions were incubated at 37 °C for various times and quenched with 100 μL of stop solution (5 mM EDTA). All samples were loaded on ice before the analysis with HPLC (HPLC conditions: A: 0.1 M TEAA, B: CH3CN; Flow rate: 1.0 mL/min; Shiseido MG1 (4.6 × 250 mm); UV detector: 254 nm; column oven: 35 °C).
Figure 2 Time courses of the hydrolysis of 8-oxo-dGTP, 7-deaza-dGTP, and 7,8-dihalogenated-7-deaza-dGTP (9, 10, and 11) by MTH1. Reaction conditions: 20 mM Tris-HCl pH 7.5, 4 mM MgCl2, 40 mM NaCl, 80 μg/mL bovine serum albumin (BSA), 8 mM dithiothreitol (DTT), 10% glycerol; 50 μM 8-oxo-dGTP, 5 nM MTH1; 50 μM dNTPs; incubated at 37 °C for various times. Hydrolysis reactions were analyzed by HPLC, and the cleavage rate was calculated from the peak area.

[4] = biological target: T1, MTH1; set-up: method as in earlier work; details: inhibition of the hydrolytic activity of MTH1; ChemBioChem 17, 566 (2016); cited from earlier work
[5] = biological target: T1, MTH1; set-up: method as in doi:10.1016/j.tet.2014.01.047, PMID 26879218, PMID 27372838; details: earlier work of the authors; cited from earlier work
[6] = 8-oxo-dGTP hydrolysis in the presence of inhibitor, 10–250 μM 8-oxo-dGTP
[7] = substrate 8-oxo-dGTP, in the absence of inhibitors

Nc1nc2c(c(Br)c(Br)n2[C@H]2C[C@H](O)[C@@H](CO)O2)c(=O)[nH]1 [Compound 2, 7,8-di-Bromo-7-deaza-2′-deoxy-guanosine]
IC50 [1]: 10700 nM

Nc1nc2c(c(Cl)c(Cl)n2[C@H]2C[C@H](O)[C@@H](CO)O2)c(=O)[nH]1 [Compound 1, 7,8-di-Chloro-7-deaza-2′-deoxy-guanosine]
IC50 [1]: 22500 nM

Nc1nc2c(c(Br)c(Br)n2[C@H]2C[C@H](O)[C@@H](COP(=O)(O)O)O2)c(=O)[nH]1 [Compound 6, 7,8-di-Bromo-7-deaza-2′-deoxy-guanosine monophosphate]
kcat [2, 6]: 9.1 s⁻¹ | Ki ([2]; 10–250 μM 8-oxo-dGTP): 27.9 nM | IC50 [1]: 260 nM

NC1=NC(=O)C2=NC(=O)N([C@H]3C[C@H](O)[C@@H](COP(=O)(O)OP(=O)(O)OP(=O)(O)O)O3)C2=N1 [Compound 8-oxo-dGTP, 8-oxo-2′-deoxyguanosine-5′-triphosphate, reference compound]
Km [2, 7]: 17.6 µM | kcat [2, 7]: 10.6 s⁻¹ | Hydrolysis to the monophosphate by MTH1 [3]: rapidly hydrolyzed

Nc1nc2c(c(I)c(I)n2[C@H]2C[C@H](O)[C@@H](COP(=O)(O)O)O2)c(=O)[nH]1 [Compound 7, 7,8-di-Iodo-7-deaza-2′-deoxy-guanosine monophosphate]
kcat [2, 6]: 10.7 s⁻¹ | Hydrolysis to the monophosphate by MTH1 [3]: not hydrolyzed | IC50 [1]: 130 nM

CC(=O)OC[C@H]1O[C@@H](n2ccc3c(=O)[nH]c(N)nc32)C[C@@H]1OC(C)=O [Compound 13, 3′,5′-di-O-Acetyl-7-deaza-2′-deoxyguanosine]
Hydrolysis to the monophosphate by MTH1 [3]: not hydrolyzed

CNc1cc(-c2cccc(Cl)c2Cl)nc(N)n1 [TH287, reference compound]
IC50 [4]: 10 nM

Nc1nc2c(c(I)c(I)n2[C@H]2C[C@H](O)[C@@H](COP(=O)(O)OP(=O)(O)OP(=O)(O)O)O2)c(=O)[nH]1 [Compound 11, 7,8-di-Iodo-7-deaza-2′-deoxy-guanosine triphosphate]
kcat [2, 6]: 11.9 s⁻¹ | Ki ([2]; 10–250 μM 8-oxo-dGTP): 30.4 nM | Hydrolysis to the monophosphate by MTH1 [3]: not detected | IC50 [1]: 130 nM

Nc1nc2c(cc(I)n2[C@H]2C[C@H](O)[C@@H](COP(=O)(O)OP(=O)(O)OP(=O)(O)O)O2)c(=O)[nH]1 [Compound 12, 8-iodo-7-deaza-dGTP]
IC50 [4]: 420 nM | Ki [5]: 61.7 nM

Nc1nc2c(ccn2[C@H]2C[C@H](O)[C@@H](COP(=O)(O)OP(=O)(O)OP(=O)(O)O)O2)c(=O)[nH]1 [Compound 7-deaza-dGTP, 7-deaza-dGTP, reference compound]
Hydrolysis to the monophosphate by MTH1 [3]: hydrolyzed, but more slowly than 8-oxo-dGTP

Nc1nc2c(c(Cl)c(Cl)n2[C@H]2C[C@H](O)[C@@H](COP(=O)(O)OP(=O)(O)OP(=O)(O)O)O2)c(=O)[nH]1 [Compound 9, 7,8-di-Chloro-7-deaza-2′-deoxy-guanosine triphosphate]
kcat [2, 6]: 9.3 s⁻¹ | Ki ([2]; 10–250 μM 8-oxo-dGTP): 28.1 nM | Hydrolysis to the monophosphate by MTH1 [3]: not detected | IC50 [1]: 160 nM

Nc1nc2c(cc(I)n2[C@H]2C[C@H](O)[C@@H](COP(=O)(O)O)O2)c(=O)[nH]1 [Compound 8, 8-Iodo-7-deaza-2′-deoxy-guanosine monophosphate]
IC50 [1]: 840 nM

Nc1nc2c(c(Cl)c(Cl)n2[C@H]2C[C@H](O)[C@@H](COP(=O)(O)O)O2)c(=O)[nH]1 [Compound 5, 7,8-di-Chloro-7-deaza-2′-deoxy-guanosine monophosphate]
kcat [2, 6]: 9.7 s⁻¹ | Ki ([2]; 10–250 μM 8-oxo-dGTP): 37 nM | IC50 [1]: 130 nM

Nc1nc2c(c(Br)c(Br)n2[C@H]2C[C@H](O)[C@@H](COP(=O)(O)OP(=O)(O)OP(=O)(O)O)O2)c(=O)[nH]1 [Compound 10, 7,8-di-Bromo-7-deaza-2′-deoxy-guanosine triphosphate]
kcat [2, 6]: 9.4 s⁻¹ | Ki ([2]; 10–250 μM 8-oxo-dGTP): 24.2 nM | Hydrolysis to the monophosphate by MTH1 [3]: not detected; also recorded: not hydrolyzed | IC50 [1]: 110 nM

Nc1nc2c(cc(I)n2[C@H]2C[C@H](O)[C@@H](CO)O2)c(=O)[nH]1 [Compound 4, 8-iodo-7-deaza-dG]
IC50 [4]: 44800 nM

Nc1nc2c(c(I)c(I)n2[C@H]2C[C@H](O)[C@@H](CO)O2)c(=O)[nH]1 [Compound 3, 7,8-di-Iodo-7-deaza-2′-deoxy-guanosine]
IC50 [1]: 17000 nM

Reference: publication PMC7866122, “Development of MTH1-Binding Nucleotide Analogs Based on 7,8-Dihalogenated 7-Deaza-dG Derivatives” (International Journal of Molecular Sciences, 2021)
